Assay [1] relates to influenza virus H5N1 Vac-3. The format is cell-based. Conditions: for anti-viral effect compared with zanamivir (Relenza): 0.01, 0.1, 1 μM.
The subject of assay [2] is highly pathogenic avian influenza virus H5N1 A/whooper swan/Hokkaido/1/08 (5×MLD50). Set-up: species or system mice. Conditions: mouse, in vivo.
In assay [3] the test system is influenza virus H1N1-pdm 2619. Format: cell-based.
In assay [4] the test system is highly pathogenic avian influenza virus H5N1: A/ws/Hokkaido/1/08 (clade 2.3), A/ws/Mongolia/3/05 (clade 2.2), A/Vietnam/UT3040/04 (clade 1). Format: cell-based.
The test system of assay [5] is influenza virus H2N2-Adachi strain. Format: cell-based.

In the case of “Cyclo(Ac-Trp-Ser-MePhe-MeGly-His-Val-His-Tyr-Ser-Val-MePhe-Asn-MeAla-Val-Cys)-amide [iHA-102]”, in assay [1], the “anti-viral effect compared with positive control iHA-24” value was “markedly higher than that of the peptide iHA-24” and the “anti-viral effect compared with zanamivir (Relenza)” value was “comparable to that of zanamivir”.

Take “Cyclo(Ac-Trp-Thr-MeGly-Thr-His-Val-Arg-Tyr-Thr-Val-MePhe-Asn-MeAla-Ser-Cys)-amide [iHA-103]”: in assay [1], the “anti-viral effect compared with positive control iHA-24” value is recorded as “markedly higher than that of the peptide iHA-24” and the “anti-viral effect compared with zanamivir (Relenza)” value was “comparable to that of zanamivir”.

In the case of “Cyclo(Ac-Trp-Thr-MeGly-Asp-MePhe-MePhe-Ser-MeSer-His-Tyr-Thr-Val-Pro-Arg-Cys)-amide [iHA-100]”, the lethal rate entry in assay [2] is “a decrease in lethal rate is observed”. In addition, in assay [3], the “anti-viral effect compared with zanamivir (Relenza)” value was “comparable to that of zanamivir”. Also, in assay [4], the “effect compared with iHA-24” value is on record as “markedly higher than that of iHA-24” and the “effect compared with zanamivir” value is “on the same level as that of zanamivir”. Also, in assay [5], the “anti-viral effect compared with zanamivir (Relenza)” value is “comparable to that of zanamivir” and the number of plaques entry was “dose-dependently decreased the number of plaques”. Moreover, in assay [1], the “anti-viral effect compared with positive control iHA-24” value was “markedly higher than that of the peptide iHA-24” and the “anti-viral effect compared with zanamivir (Relenza)” value was “comparable to that of zanamivir”.

For `CC(=O)N[C@H]1[C@H]([C@H](O)[C@H](O)CO)OC(C(=O)O)=C[C@@H]1N=C(N)N` [zanamivir], in assay [2], the lethality result is given as “a dead individual is found” and the treatment effect result is “no treatment effect is obtained”.

Source of the values: US10328143B2, “Hemagglutinin-binding peptide” (priority 2014, dated 2019).
